Data as given in ChEMBL document CHEMBL3616455, “Anti-adipogenic activity of a new cyclic diarylheptanoid isolated from Alnus japonica on 3T3-L1 cells via modulation of PPARγ, C/EBPα and SREBP1c signaling” (Bioorg Med Chem Lett, 2015).
The source made the active and inactive calls. The calls are words filed in the database; no cut-off is given here.

How the values were obtained:
Mus musculus = species on record: Mus musculus; experiment: Inhibition of PPARgamma/C/EBPalpha/SREBP1c in mouse 3T3L1 preadipocytes assessed as inhibition of adipocyte differentiation by measuring remaining lipid content at 100 uM measured on day 8 by Oil Red O staining-based spectrophotometric analysis relative to control; assay type: cell-based
[1] = biological target: T1, Sterol regulatory element-binding protein 1 (Mus musculus) (UniProt Q9WTN3); experiment: Inhibition of SREBP1c in mouse 3T3L1 preadipocytes at 50 to 100 uM after 8 days by Western blot analysis; assay type: cell-based
T1 sequence (whole entry): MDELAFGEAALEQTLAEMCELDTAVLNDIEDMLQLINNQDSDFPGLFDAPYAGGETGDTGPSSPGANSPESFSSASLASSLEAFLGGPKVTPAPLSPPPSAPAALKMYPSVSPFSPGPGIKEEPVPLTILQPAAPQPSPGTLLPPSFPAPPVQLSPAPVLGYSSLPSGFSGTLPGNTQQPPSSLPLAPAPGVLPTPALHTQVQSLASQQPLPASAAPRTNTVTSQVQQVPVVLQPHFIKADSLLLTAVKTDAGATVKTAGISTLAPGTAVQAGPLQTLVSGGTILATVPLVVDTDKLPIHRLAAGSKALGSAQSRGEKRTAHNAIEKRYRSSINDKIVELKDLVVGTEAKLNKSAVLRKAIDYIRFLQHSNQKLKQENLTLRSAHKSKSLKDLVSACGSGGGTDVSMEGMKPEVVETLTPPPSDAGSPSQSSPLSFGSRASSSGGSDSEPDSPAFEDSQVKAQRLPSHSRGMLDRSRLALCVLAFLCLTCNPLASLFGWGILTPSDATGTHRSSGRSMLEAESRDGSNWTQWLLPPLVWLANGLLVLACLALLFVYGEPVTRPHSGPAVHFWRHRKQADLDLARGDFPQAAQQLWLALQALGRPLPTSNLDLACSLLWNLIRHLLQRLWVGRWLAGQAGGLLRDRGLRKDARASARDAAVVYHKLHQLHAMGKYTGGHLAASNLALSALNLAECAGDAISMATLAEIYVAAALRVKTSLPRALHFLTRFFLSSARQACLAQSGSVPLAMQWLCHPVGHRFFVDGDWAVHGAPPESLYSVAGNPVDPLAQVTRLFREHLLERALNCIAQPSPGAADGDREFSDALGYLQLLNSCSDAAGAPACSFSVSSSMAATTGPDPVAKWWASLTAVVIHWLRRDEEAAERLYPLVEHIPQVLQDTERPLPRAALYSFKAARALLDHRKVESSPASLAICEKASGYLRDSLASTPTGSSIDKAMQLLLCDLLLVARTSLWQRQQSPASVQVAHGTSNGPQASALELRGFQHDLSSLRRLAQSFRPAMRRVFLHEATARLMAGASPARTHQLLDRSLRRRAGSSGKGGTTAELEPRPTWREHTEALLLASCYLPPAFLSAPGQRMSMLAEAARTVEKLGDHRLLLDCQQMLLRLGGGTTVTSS

[2] = Downregulation of C/EBPbeta mRNA expression in mouse 3T3L1 preadipocytes at 50 to 100 uM measured on day 2 by qRT-PCR analysis; assay type: functional, cell-based; details: 3T3-L1
[3] = biological target: CCAAT/enhancer-binding protein alpha (Mus musculus) (UniProt P53566); experiment: Inhibition of C/EBPalpha in mouse 3T3L1 preadipocytes at 50 to 100 uM after 8 days by Western blot analysis relative to control; assay type: cell-based
[4] = biological target: T2, Peroxisome proliferator-activated receptor gamma (Mus musculus) (UniProt P37238); experiment: Inhibition of PPARgamma in mouse 3T3L1 preadipocytes at 50 to 100 uM after 8 days by Western blot analysis relative to control; assay type: cell-based
T2 sequence (whole entry): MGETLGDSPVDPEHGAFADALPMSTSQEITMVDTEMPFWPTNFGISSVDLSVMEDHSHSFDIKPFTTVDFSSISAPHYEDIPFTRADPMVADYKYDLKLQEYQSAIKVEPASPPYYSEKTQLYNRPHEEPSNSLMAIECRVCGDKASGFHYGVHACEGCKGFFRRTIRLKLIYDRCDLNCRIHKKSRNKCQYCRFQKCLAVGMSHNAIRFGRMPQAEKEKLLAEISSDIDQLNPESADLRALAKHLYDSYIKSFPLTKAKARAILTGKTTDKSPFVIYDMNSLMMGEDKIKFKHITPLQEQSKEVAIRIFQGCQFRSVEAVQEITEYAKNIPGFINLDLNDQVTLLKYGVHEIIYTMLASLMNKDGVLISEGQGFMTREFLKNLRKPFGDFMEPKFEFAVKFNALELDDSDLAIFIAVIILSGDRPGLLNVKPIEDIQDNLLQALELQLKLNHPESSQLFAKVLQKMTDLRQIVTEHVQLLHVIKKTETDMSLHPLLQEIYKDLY

[5] = Downregulation of C/EBPdelta mRNA expression in mouse 3T3L1 preadipocytes at 50 to 100 uM measured on day 2 by qRT-PCR analysis; assay type: functional, cell-based; details: 3T3-L1
[6] = Downregulation of LPL mRNA expression in mouse 3T3L1 preadipocytes at 50 to 100 uM after 8 days by qRT-PCR analysis; assay type: functional, cell-based; details: 3T3-L1
[7] = biological target: T1, Sterol regulatory element-binding protein 1 (Mus musculus); experiment: Inhibition of SREBP1c in mouse 3T3L1 preadipocytes assessed as downregulation of FAS mRNA expression at 50 to 100 uM after 8 days by qRT-PCR analysis; assay type: cell-based
[8] = biological target: T1, Sterol regulatory element-binding protein 1 (Mus musculus); experiment: Inhibition of SREBP1c in mouse 3T3L1 preadipocytes assessed as downregulation of SCD-1 mRNA expression at 50 to 100 uM after 8 days by qRT-PCR analysis; assay type: cell-based

CCAAT/enhancer-binding protein alpha (Mus musculus), sequence (P53566 whole entry): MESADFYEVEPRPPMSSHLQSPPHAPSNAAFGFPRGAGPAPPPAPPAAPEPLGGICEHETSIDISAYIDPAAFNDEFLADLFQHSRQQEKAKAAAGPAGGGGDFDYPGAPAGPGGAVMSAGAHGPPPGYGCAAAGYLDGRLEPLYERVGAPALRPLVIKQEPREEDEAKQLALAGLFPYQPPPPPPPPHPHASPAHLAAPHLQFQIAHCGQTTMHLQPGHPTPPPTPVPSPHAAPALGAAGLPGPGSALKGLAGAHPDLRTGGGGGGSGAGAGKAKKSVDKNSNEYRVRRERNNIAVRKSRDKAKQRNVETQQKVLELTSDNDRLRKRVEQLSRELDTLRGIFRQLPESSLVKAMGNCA

With `O=C1CCCCc2ccc(O)c(c2)-c2cc(ccc2O)CC1` the Activity (Mus musculus) was 54.4%.

Compound `O=C(O[C@@H]1Cc2c(O)cc(O)cc2O[C@@H]1c1cc(O)c(O)c(O)c1)c1cc(O)c(O)c(O)c1` has an Activity (Mus musculus) of 54.5%.

`Oc1ccc2cc1-c1cc(ccc1O)CC(O)C(O)CC(O)C(O)C2` (stereo not given) showed an Activity (Mus musculus) of 58.5%.

Work on `COc1cc(/C=C/C(=O)O[C@H]2[C@H](O[C@@H](CCc3ccc(O)c(O)c3)CC(=O)CCc3ccc(O)c(O)c3)OC[C@@H](O)[C@@H]2O)ccc1O` yielded an Activity (Mus musculus) of 71.3%.

In the case of `O=C(CCc1ccc(O)c(O)c1)C[C@H](CCc1ccc(O)c(O)c1)O[C@@H]1OC[C@@H](O)[C@H](O)[C@H]1OC(=O)/C=C/c1ccccc1`, the Activity (Mus musculus) is reported as 85.6%.

For `O=C1CCc2ccc(O)c(c2)-c2cc(ccc2O)CCC(=O)C1O`, the inhibition [1] was “Active”, the Activity (Mus musculus) was 11.6% and the Activity [2] was “Active”. The inhibition [3] was “Active”, the inhibition [4] was “Active” and the Activity [5] was “Active”. The Activity [6] was “Active”, the inhibition [7] was “Active” and the inhibition [8] was “Active”.

With `O=C(CCc1ccc(O)c(O)c1)C[C@H](CCc1ccc(O)c(O)c1)O[C@@H]1OC[C@@H](O)[C@H](O)[C@H]1OC(=O)/C=C/c1ccc(O)cc1` the Activity (Mus musculus) was 95.7%.
